A short description of data set [1]: Pharmacokinetic study in normal control (NC) mice after oral administration of SMYAD. Type of data set: in vivo, mouse. The settings on record: for AUC(0-t) / AUC(0-inf) / Cmax / half-life / Tmax: male, C57BL/6J. Here is the method: (§1) Male C57BL/6J mice and ApoE^−/− mice on a C57BL/6 background (7 weeks old, 18–22 g) were purchased from Beijing Vital River Laboratory Animal Technology Co., Ltd. (Beijing, China, Certificate No.: SCXK (Jing) 2016-0006). All the mice were kept in an SPF animal house (Dongzhimen Hospital Affiliated to Beijing University of Chinese Medicine, Certificate No.: SYXK (Jing) 2015-0001) with food and water freely available, 12 h light/dark, and environmental conditions of 22°C–24°C, 50% relative humidity. All protocols of animal experiments were performed in accordance with the National Guidelines for Laboratory Animal Welfare and were approved by the Animal Ethics Committee of Beijing University of Chinese Medicine (NO. BUCM-4-2015071701-3001). High-fat feeding (containing 15% fat and 0.25% cholesterol) was provided by Beijing HFK bioscience CO., LTD. (Beijing, China, Certificate No.: SCXK (Jing) 2014-0018).
(§2) After successful induction of AS model, SMYAD was administered to NC and AS mice by intragastric gavage at the crude drug dose of 35 g/kg/d for seven days. Blood samples were collected from each mouse in heparinized tubes via the postorbital venous plexus veins at 0, 0.25, 0.5, 1, 2, 4, 6, 8, 10, 12, 18, and 24 h after seven days of drug administration. Then blood samples were immediately centrifuged at 3500 rpm at 4°C for 10 min and the plasma was stored at −80°C until use.
(§3) Each plasma sample (100 μL) was mixed with a threefold volume of methanol and 25 μL IS in a 1.5 mL EP tube. Then the mixture was vortexed for 100 seconds and centrifuged at 12,000 rpm for 10 min at 4°C. The supernatant was transferred to another EP tube and evaporated to dryness under a nitrogen vacuum. The residue was reconstituted with 100 μL of 50% methanol and centrifuged at 15,000 rpm for 15 min. Then the supernatant was transferred to sample vials for the LC-MS analysis.
(§4) A Vanquish UHPLC™ system (Thermo Fisher Scientific Inc., USA) was used for the analysis. Samples were separated on an Atlantis T3 column (4.6 mm × 150 mm, 3 μm; Waters, USA). The column temperature was 40°C. The mobile phase, at 0.4 mL/min, consisted of water containing 0.1% formic acid (v/v, A) and methanol (B). The quantitative analysis gradient program was as follows: 0-1 min, 0 B; 1–6 min, 0–100% B; 6–12 min, 100% B; 12–12.1 min, 100%-0 B; 12.1–15 min, 0 B. The injection volume was 5 μL.
(§5) The mass spectrometer Q Exactive HF-X (Thermo Fisher Scientific Inc., USA) system was connected to the UHPLC system via heated electrospray ionization (HESI) and controlled by Xcalibur 4.2 software (Thermo Fisher) that was used for data collection and analysis. The mass spectrometer was operated in a negative ionization mode. The MS parameters were set as follows: probe heater temperature, 350°C; capillary temperature: 320°C; sheath gas (N2) flow rate: 30 arbs; auxiliary gas (N2) flow rate: 10 arbs; spray voltage: 3.2 kV (negative); S-Lens RF level: 55 V; scan mode: full MS (resolution 12000); scan range: m/z 150–1500. The most abundant ions in the spectra were selected for sensitive quantitation ([M-H]^−of chlorogenic acid, angoroside C, liquiritin, isoliquiritigenin, and IS, [M + COOH]^− of harpagide, swertiamarin, and sweroside).
The pharmacokinetic parameters, including maximum plasma concentration (Cmax), time corresponding to Cmax (Tmax), terminal elimination half-life (T1/2), area under plasma concentration-time curve (AUC0–t) and area under the plasma concentration-time curve from 0 to infinity time (AUC0–∞), apparent volume of distribution (Vz/F) and clearance (CLz/F), were calculated using the noncompartment model in DAS 2.0 software package (Shanghai, China). GraphPad prism 6.02 (GraphPad Software, USA) was used in the statistical analysis. All values are expressed as mean ± standard error. For the pharmacokinetic parameter values of the NC and AS groups, Student's t-test was employed for data comparisons. P values <0.05 were considered statistically significant.

The nature of data set [2]: Pharmacokinetic study in atherosclerosis (AS) model ApoE−/− mice after oral administration of SMYAD. It counts as in vivo, mouse. Here is the method:
as §1
The AS model was established by a high-fat diet and perivascular carotid collar placement (PCCP) surgery in the ApoE^−/− mice. After a 7-day adaptive feeding, the mice were given a high-fat diet for 2 weeks; before anesthesia, all ApoE^−/− mice were fasted for 12 hours. During the surgery, the right common carotid artery was exposed, and a silicone cannula (length: 2.5 mm, inner diameter: 0.3 mm) was fixed around the carotid artery (external diameter: about 0.5 mm). Penicillin was injected intraperitoneally for 3 days after surgery to prevent infection. High-fat diet continued for 8 weeks after surgery to establish AS model. Biochemical assays and hematoxylin and eosin (HE) staining were used to evaluate whether AS model was successfully established.
as §2, §3, §4
as §5, with “sweroside). […]” for “sweroside).”

The mark [3] stands for this setting: NC mice, plasma, SMYAD intragastric 35 g/kg/d for seven days, mean ± SD, n = 5.
Where [4] appears, read: mouse, po, 35 g/kg/day, NC mice, plasma, SMYAD intragastric 35 g/kg/d for seven days, mean ± SD, n = 5, read-out: AUC0–t.
Setting [5] is: mouse, po, 35 g/kg/day, NC mice, plasma, SMYAD intragastric 35 g/kg/d for seven days, mean ± SD, n = 5, read-out: AUC0–∞.
Where [6] appears, read: mouse, po, 35 g/kg/day, NC mice, plasma, SMYAD intragastric 35 g/kg/d for seven days, mean ± SD, n = 5, read-out: C max.
Where [7] appears, read: mouse, po, 35 g/kg/day, NC mice, plasma, SMYAD intragastric 35 g/kg/d for seven days, mean ± SD, n = 5, read-out: t 1/2 (converted).
Where [8] appears, read: mouse, po, 35 g/kg/day, NC mice, plasma, SMYAD intragastric 35 g/kg/d for seven days, mean ± SD, n = 5, read-out: t max.
The mark [9] stands for this setting: AS mice, plasma, SMYAD intragastric 35 g/kg/d for seven days, mean ± SD, n = 5.
The mark [10] stands for this setting: male, ApoE−/− on a C57BL/6 background, mouse, po, 35 g/kg/day, AS mice, plasma, SMYAD intragastric 35 g/kg/d for seven days, mean ± SD, n = 5, read-out: AUC0–t.
The mark [11] stands for this setting: male, ApoE−/− on a C57BL/6 background, mouse, po, 35 g/kg/day, AS mice, plasma, SMYAD intragastric 35 g/kg/d for seven days, mean ± SD, n = 5, read-out: AUC0–∞.
Where [12] appears, read: male, ApoE−/− on a C57BL/6 background, mouse, po, 35 g/kg/day, AS mice, plasma, SMYAD intragastric 35 g/kg/d for seven days, mean ± SD, n = 5, read-out: C max.
Setting [13] is: male, ApoE−/− on a C57BL/6 background, mouse, po, 35 g/kg/day, AS mice, plasma, SMYAD intragastric 35 g/kg/d for seven days, mean ± SD, n = 5, read-out: t 1/2 (converted).
Where [14] appears, read: male, ApoE−/− on a C57BL/6 background, mouse, po, 35 g/kg/day, AS mice, plasma, SMYAD intragastric 35 g/kg/d for seven days, mean ± SD, n = 5, read-out: t max.
The mark [15] stands for this setting: mouse, in vivo, po, 35 g/kg/day.
The mark [16] stands for this setting: male, ApoE−/− on a C57BL/6 background, mouse, in vivo, po, 35 g/kg/day.

Results on four compounds are retold here after publication PMC9071858, “Comparative Pharmacokinetics of Seven Major Compounds in Normal and Atherosclerosis Mice after Oral Administration of Simiao Yong'an Decoction” (Evidence-based Complementary and Alternative Medicine : eCAM, 2022).

Structures are written as SMILES.

`O=C(/C=C/c1ccc(O)cc1)c1ccc(O)cc1O` [Isoliquiritigenin, isoliquiritigenin]: the CLz/F in data set [1] (setting [3]) was 558500 ± 73500 µL/min/mg; in data set [2] (setting [9]), 62.16 ± 23.35^∗ L/h/mg; in data set [2] (AS mice, plasma, SMYAD intragastric 35 g/kg/d for seven days, mean ± SD, n = 5, listed as isoliquiritigenin), 62.16 ± 23.35 L/h/mg. Further, the Vz/F stood at 198.37 ± 58.53 L/mg in data set [1] (setting [3]) and 658.87 ± 555.51 L/mg in data set [2] (setting [9]). Besides, the AUC(0-t) stood at 1040 ± 144 ng·h/mL in data set [1] (setting [4]) and 502 ± 166 ng·h/mL in data set [2] (setting [10]). Further, the AUC(0-inf) was 1060 ± 144 ng·h/mL in data set [1] (setting [5]) and 654 ± 251 ng·h/mL in data set [2] (setting [11]). The Cmax in data set [1] (setting [6]) was determined as 175 ± 49 ng/mL; in data set [2] (setting [12]), 135 ± 102 ng/mL. Also, the half-life was 6.65 ± 1.31 h in data set [1] (setting [7]) and 6.01 ± 2.32 h in data set [2] (setting [13]). In addition, the Tmax came to 1.9 ± 2.13 h in data set [1] (setting [8]) and 0.95 ± 0.6 h in data set [2] (setting [14]).
With `C=C[C@H]1[C@H](O[C@@H]2O[C@H](CO)[C@@H](O)[C@H](O)[C@H]2O)OC=C2C(=O)OCC[C@H]21` [Sweroside, sweroside], in data set [1] (setting [15]), the AUC(0-inf) was found to be 7080 ± 390 ng·h/mL, the AUC(0-t) was 6980 ± 382 ng·h/mL, the Cmax is 1790 ± 369 ng/mL and the Tmax amounted to 0.4 ± 0.3 h. For the same compound, in data set [1] (setting [15]), the half-life is 3.81 ± 0.56 h, the CLz/F turned out to be 82700 ± 4670 µL/min/mg and the Vz/F worked out at 16.99 ± 3.78 L/mg. In data set [2] (setting [16]), the AUC(0-inf) was 8930 ± 2120 ng·h/mL, the AUC(0-t) was found to be 7500 ± 1800 ng·h/mL, the Cmax is 1590 ± 497 ng/mL and the Tmax was 0.9 ± 0.64 h. The same compound gave a half-life in data set [2] (setting [16]) of 6.56 ± 2.75 h. Also, in data set [2] (setting [15]), the CLz/F is on record as 4.29 ± 1.55 L/h/mg and the Vz/F stood at 29.99 ± 14.26 L/mg.
On to `O=C(/C=C/c1ccc(O)c(O)c1)O[C@@H]1C[C@](O)(C(=O)O)C[C@@H](O)[C@H]1O` [Chlorogenic acid, chlorogenic acid], for which the CLz/F was 506200 ± 126000 µL/min/mg in data set [1] (setting [3]); 13.49 ± 1.81^∗∗ L/h/mg in data set [2] (setting [9]); 13.49 ± 1.81 L/h/mg in data set [2] (AS mice, plasma, SMYAD intragastric 35 g/kg/d for seven days, mean ± SD, n = 5, listed as chlorogenic acid). The results for the Vz/F in data set [1] (setting [3]) and in data set [2] (setting [9]) were 247.01 ± 150.71 L/mg and 302.49 ± 211.89 L/mg, respectively. The AUC(0-t) in data set [1] (setting [4]) turned out to be 1110 ± 419 ng·h/mL; in data set [2] (setting [10]), 1560 ± 476 ng·h/mL. The AUC(0-inf) in data set [1] (setting [5]) was found to be 1260 ± 425 ng·h/mL; in data set [2] (setting [11]), 2640 ± 323 ng·h/mL. For the same compound, the Cmax amounted to 267 ± 72.4 ng/mL in data set [1] (setting [6]) and 1130 ± 970 ng/mL in data set [2] (setting [12]). The results for the half-life in data set [1] (setting [7]) and in data set [2] (setting [13]) were 4.51 ± 1.1 h and 21.6 ± 9.16 h, respectively. For the same compound, the Tmax in data set [1] (setting [8]) turned out to be 1.13 ± 0.88 h; in data set [2] (setting [14]), 0.25 h.
Turning to `O=C1C[C@@H](c2ccc(O[C@@H]3O[C@H](CO)[C@@H](O)[C@H](O)[C@H]3O)cc2)Oc2cc(O)ccc21` [Liquiritin, liquiritin], in data set [1] (setting [15]), the AUC(0-inf) is 760 ± 334 ng·h/mL, the AUC(0-t) was 607 ± 229 ng·h/mL, the Cmax stood at 132 ± 57.1 ng/mL and the Tmax is 0.75 ± 0.63 h. In data set [1] (setting [15]), the half-life is 17 ± 3.43 h, the CLz/F was found to be 979000 ± 515700 µL/min/mg and the Vz/F came to 565.81 ± 116.60 L/mg. The compound also gave a CLz/F in data set [2] (male, ApoE−/− on a C57BL/6 background, mouse, in vivo) of 67.62 ± 33.62 L/h/mg. In addition, in data set [2] (setting [16]), the AUC(0-inf) was found to be 482 ± 137 ng·h/mL, the AUC(0-t) is 408 ± 115 ng·h/mL, the Cmax was 67.6 ± 33.6 ng/mL and the Tmax was 0.75 ± 0.69 h. The half-life in data set [2] (setting [16]) is 13.5 ± 3.57 h. Further, in data set [2] (setting [15]), the Vz/F stood at 887.57 ± 397.82 L/mg.
